Source: US20250059499A1, “CELL-SURFACE ENGINEERING COMPOSITIONS AND METHODS FOR THE PREVENTION OF IMMUNE REJECTION” (THE UNIVERSITY OF BRITISH COLUMBIA, priority 2021, published 2025)
“Also recorded” adds a separate entry of the source. LPG = linear polyglycerol, Mn 14,900 Da

Key:
[1] = test system: IL-2 activated PBMCs on TNF-α activated Ea.hy926 monolayers; assay: PBMC adhesion to endothelial surfaces; type: cell-based, human; conditions: 0.5 mM LPG-Q or 0.56 mM LPG-Q-Sia3Lac
Procedure: Confluent Ea.hy926 monolayers seeded in a 48 well plate (30,000 cells/well) were activated with TNF-α (2000 U/mL, 3 hours). To obtain PBMCs, EDTA anticoagulated blood from healthy donors was subjected to ficoll density gradient centrifugation Histopaque™-1077 (Sigma Aldrich™). PBMCs were cultured for 24 h in RPMI-1640 containing 10% FBS (v/v), 1000 U/mL recombinant human IL-2 (Cedarlane™)^11 and 1% P/S. Prior to fluorescent labelling, cultured PBMCs were tested for absence of platelets by labelling an aliquot of cells with FITC-labelled anti-human […] (1:200 Beckman Coulter™) and analyzed by flow cytometry (CytoFLEX™, Beckman Coulter™). PBMCs containing <1% platelets were implemented for further study. The PBMC composition was also measured using a hematological analyzer (XN-550™ automated hematology analyzer, Sysmex Canada Inc.™). Following IL-2 treatment the typical composition of the PBMCs were ˜80% lymphocytes, 5% immature granulocytes, 2% basophils and 13% monocytes. […] PMBC adhesion was quantified by lysing the cells with RIPA buffer, spinning at 15,000 g to remove cell debris and measuring the fluorescent intensity of the CMFDA Dye in the lysate (λex/λem=492/517 nm using a plate reader (Spectramax3™, Molecular Devices™).

cell-surface ICAM-1 = assay: ICAM-1 labelling by flow cytometry (immunocamouflage); type: cell-based, human; conditions: TNF-α activated Ea.hy926, 0.2-3.0 mM polymer, UW, 4° C.
Procedure: For ICAM-1 labelling, Ea.hy926 cells were activated with TNF-α (2000 U/mL, 3 hours)^9 in serum deficient DMEM to stimulate the expression of ICAM-1 on the cell surface before polymer attachment. To account for differences in reactivity between Q-tagged polymers, concentrations of polymer added to the solution were adjusted using NH3 generation data to ensure that a similar number of polymers attached to the cell surface. Following polymer attachment, the cells were fixed, and labelled with PE-Cy™5 Mouse Anti-Human CD54 (1:20, BD Biosciences™) for 20 minutes at room temp in the dark. The cell monolayers were trypsinized and subjected to flow cytometry (CytoFLEX™, Beckman Coulter™) in which 10,000 events were acquired and the median fluorescent intensity in the 667 channel was recorded

Q: For “linear polyglycerol glutamine (Ac-GQQQLGGGGG-{LPG}; not fully specified; also: part of the polymer BODIPY FL-labelled in some experiments) [LPG-Q]”, which “reduction of PBMC adhesion to endothelial cells compared to the control” value [1] is on record?
A: Its value is roughly 2.8 fold.

Q: And the “detection of ICAM-1 on the surface of endothelial cells” value (cell-surface ICAM-1)?
A: The value was “camouflages pro-inflammatory ICAM-1 receptors in a dose-dependent manner; also recorded: reduced the detection of ICAM-1”.
